Reference: patent publication US20080090805A1, “CB-1 MODULATING COMPOUNDS AND THEIR USE” (ACADIA PHARMACEUTICALS INC., priority 2005, published 2008)

Target: CB1 (mutant) (Homo sapiens, UniProt P21554)
Assay: R-SAT functional receptor assay, CB1 (mutant, truncated after amino acid 417)
Format: cell-based
Conditions: Appendix A; R-SAT CB1; receptor form not stated; relative to SR141716 (100%); read-out: % Inhibition

Chain of CB1 (mutant) (P21554 1-417, change not shown): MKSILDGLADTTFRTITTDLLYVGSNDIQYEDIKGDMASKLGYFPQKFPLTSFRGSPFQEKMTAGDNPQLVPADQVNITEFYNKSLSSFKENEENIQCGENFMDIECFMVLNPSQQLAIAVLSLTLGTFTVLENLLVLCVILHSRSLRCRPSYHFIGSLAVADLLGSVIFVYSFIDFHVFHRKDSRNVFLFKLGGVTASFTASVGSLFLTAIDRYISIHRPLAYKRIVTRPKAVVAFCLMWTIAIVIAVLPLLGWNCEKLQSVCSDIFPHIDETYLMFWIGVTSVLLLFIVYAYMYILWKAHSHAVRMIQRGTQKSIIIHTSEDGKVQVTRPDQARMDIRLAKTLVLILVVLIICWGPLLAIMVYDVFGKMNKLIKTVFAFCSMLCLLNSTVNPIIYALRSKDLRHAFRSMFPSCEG

| Structure (SMILES) | Emax |
| --- | --- |
| CCCC1=Nc2cc(C(=O)NCCCN(C)C3CCCCC3)ccc2Sc2ccccc21 | 120% |
| O=C(NN1CCCCC1)c1ccc2c(c1)N=C(c1ccccc1F)c1ccccc1S2 | 104% |

Same assay, conditions: pIC50, Appendix A; R-SAT CB1; receptor form (mutant or wild-type) not stated

| Structure (SMILES) | IC50 |
| --- | --- |
| O=C(NN1CCCCC1)c1ccc2c(c1)N=C(c1ccccc1F)c1ccccc1S2 | 100 nM |

Same assay, conditions: read-out: % Inhibition, Appendix A; R-SAT CB1; receptor form not stated; relative to SR141716 (100%)

| Structure (SMILES) | Emax |
| --- | --- |
| O=C(NN1CCCCC1)c1ccc2c(c1)N=C(C1CCCCC1)c1ccccc1S2 [drawing 744] | 86% |

Target: native CB1 receptors (Rattus norvegicus, UniProt P20272)
Assay: CB1 receptor rat binding assay ([3H]SR141716A, rat brain membranes)
Conditions: rat brain membranes, [3H]SR141716A

Chain of native CB1 receptors (P20272 whole entry): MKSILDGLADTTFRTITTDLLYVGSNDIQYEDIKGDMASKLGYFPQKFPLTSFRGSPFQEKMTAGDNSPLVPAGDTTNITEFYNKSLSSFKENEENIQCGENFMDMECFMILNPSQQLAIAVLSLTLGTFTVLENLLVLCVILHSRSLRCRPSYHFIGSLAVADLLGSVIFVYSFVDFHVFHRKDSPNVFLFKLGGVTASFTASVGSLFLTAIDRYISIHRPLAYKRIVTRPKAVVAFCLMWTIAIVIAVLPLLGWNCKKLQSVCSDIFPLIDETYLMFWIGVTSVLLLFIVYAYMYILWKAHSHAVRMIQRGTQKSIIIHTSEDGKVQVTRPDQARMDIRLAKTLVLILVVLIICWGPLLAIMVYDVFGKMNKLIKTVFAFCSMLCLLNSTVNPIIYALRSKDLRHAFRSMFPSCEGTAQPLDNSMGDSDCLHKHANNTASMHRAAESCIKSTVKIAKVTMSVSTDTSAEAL

| Binding rat Inh % | Structure (SMILES) |
| --- | --- |
| 93% | Cc1ccsc1C1=Nc2cc(C(=O)NCCc3cccnc3)ccc2Sc2ccccc21 [drawing 1521] |
| 87% | CCCNC(=O)c1ccc2c(c1)N=C(c1ccc(F)cc1)c1ccccc1S2 [drawing 1262] |
| 108% | CCCCNC(=O)c1ccc2c(c1)N=C(c1ccccn1)c1ccccc1S2 [drawing 1527] |
| 72% | CC(C)NC(=O)c1ccc2c(c1)N=C(c1ccc(Cl)cc1F)c1ccccc1S2 [drawing 1363] |
| 109% | O=C(NCc1cccs1)c1ccc2c(c1)N=C(c1ccccn1)c1ccccc1S2 [drawing 1381] |
| 97% | O=C(NCCc1cccnc1)c1ccc2c(c1)N=C(c1cccc(Cl)c1)c1ccccc1S2 [drawing 1293] |
| 97% | CC(C)CNC(=O)c1ccc2c(c1)N=C(c1ccc(F)cn1)c1ccccc1S2 [drawing 1254] |
| 106% | Cc1ccc(CNC(=O)c2ccc3c(c2)N=C(c2ccc(Cl)s2)c2ccccc2S3)o1 [drawing 1223] |
| 86% | CCCNC(=O)c1ccc2c(c1)N=C(c1cccc(Cl)c1)c1ccccc1S2 [drawing 1189] |

Continued, compound first:

| Structure (SMILES) | Binding rat Inh % |
| --- | --- |
| COc1cccc(C2=Nc3cc(C(=O)NCCC(F)(F)F)ccc3Sc3ccccc32)n1 [drawing 1237] | 91% |
| COc1ccc(C2=Nc3cc(C(=O)NC4CCCC4)ccc3Sc3ccccc32)cc1 [drawing 1364] | 71% |
| CCCCNC(=O)c1cnc2c(n1)N=C(c1ccccc1)c1ccccc1S2 [drawing 1534] | 88% |
| O=C(NCCc1ccncc1)c1ccc2c(c1)N=C(c1cccc(F)c1)c1ccccc1S2 [drawing 1389] | 88% |
| O=C(NC1CCCC1)c1ccc2c(c1)N=C(c1cccc(F)c1)c1ccccc1S2 [drawing 1310] | 82% |
| O=C(NC1CCCCC1)c1ccc2c(c1)N=C(c1cccc(F)c1)c1ccccc1S2 [drawing 1306] | 84% |
| O=C(NN1CCCCC1)c1ccc2c(c1)N=C(c1ccc(Cl)cn1)c1ccccc1S2 [drawing 1373] | 95% |

Same assay, conditions: rat brain membranes, [3H]SR141716A; read-out: Binding rat pKi (converted)

| Ki | Structure (SMILES) |
| --- | --- |
| 79.4 nM | Cc1ccsc1C1=Nc2cc(C(=O)NCCc3cccnc3)ccc2Sc2ccccc21 [drawing 1521] |
| 15.8 nM | CCN(CCNC(=O)c1ccc2c(c1)N=C(c1ccccc1)c1ccccc1S2)c1ccccc1 [drawing 1245] |
| 20 nM | CCCNC(=O)c1ccc2c(c1)N=C(c1ccc(F)cc1)c1ccccc1S2 [drawing 1262] |
| 7.94 nM | CC(NC(=O)c1ccc2c(c1)N=C(c1cccc(Cl)c1)c1ccccc1S2)c1ccccc1 (stereo not shown) [drawing 1465] |
| 6.31 nM | O=C(NCc1ccccc1Cl)c1ccc2c(c1)N=C(c1cccc(Cl)c1)c1ccccc1S2 [drawing 1415] |
| 12.6 nM | O=C(NCc1ccc(Cl)cc1Cl)c1ccc2c(c1)N=C(c1ccccc1)c1ccccc1S2 [drawing 1204] |
| 3.98 nM | O=C(NCCc1ccccc1)c1ccc2c(c1)N=C(c1ccc(F)cc1)c1ccccc1S2 [drawing 1335] |
| 79.4 nM | CCCCNC(=O)c1ccc2c(c1)N=C(c1ccccn1)c1ccccc1S2 [drawing 1527] |
| 31.6 nM | CC(C)NC(=O)c1ccc2c(c1)N=C(c1ccc(Cl)cc1F)c1ccccc1S2 [drawing 1363] |
| 3.16 nM | O=C(NCCCc1ccccc1)c1ccc2c(c1)N=C(c1cccc(Cl)c1)c1ccccc1S2 [drawing 1327] |
| 31.6 nM | O=C(NCc1cccs1)c1ccc2c(c1)N=C(c1ccccn1)c1ccccc1S2 [drawing 1381] |
| 100 nM | O=C(NCc1ccc(Cl)cc1Cl)c1ccc2c(c1)N=C(c1ccccc1F)c1ccccc1S2 [drawing 1551] |
| 15.8 nM | O=C(NCCc1cccc(Cl)c1)c1ccc2c(c1)N=C(N1CCCCC1)c1ccccc1S2 [drawing 1222] |
| 20 nM | O=C(NCCc1cccnc1)c1ccc2c(c1)N=C(c1cccc(Cl)c1)c1ccccc1S2 [drawing 1293] |
| 15.8 nM | CC(C)CNC(=O)c1ccc2c(c1)N=C(c1ccc(F)cn1)c1ccccc1S2 [drawing 1254] |
| 12.6 nM | CC(CNC(=O)c1ccc2c(c1)N=C(c1ccccc1)c1ccccc1S2)c1ccccc1 (stereo not shown) [drawing 1197] |
| 31.6 nM | O=C(NCc1ccccc1Br)c1ccc2c(c1)N=C(c1ccc(Cl)cc1)c1ccccc1S2 [drawing 1388] |
| 0.501 nM | Cc1ccc(CNC(=O)c2ccc3c(c2)N=C(c2ccc(Cl)s2)c2ccccc2S3)o1 [drawing 1223] |
| 12.6 nM | CCCNC(=O)c1ccc2c(c1)N=C(c1cccc(Cl)c1)c1ccccc1S2 [drawing 1189] |

The next lines start with the compound.

| Structure (SMILES) | Ki |
| --- | --- |
| CCCCNC(=O)c1ccc2c(c1)N=C(c1ccc(Cl)cc1)c1ccccc1[S+]2[O-] (stereo not shown) [drawing 1205] | 12.6 nM |
| COc1cccc(C2=Nc3cc(C(=O)NCCC(F)(F)F)ccc3Sc3ccccc32)n1 [drawing 1237] | 15.8 nM |
| CCCC1=Nc2cc(C(=O)NCCc3ccc(Cl)cc3)ccc2Sc2ccccc21 [drawing 1285] | 20 nM |
| COc1ccc(C2=Nc3cc(C(=O)NC4CCCC4)ccc3Sc3ccccc32)cc1 [drawing 1364] | 31.6 nM |
| CCCCNC(=O)c1cnc2c(n1)N=C(c1ccccc1)c1ccccc1S2 [drawing 1534] | 12.6 nM |
| O=C(NCc1cccc(Cl)c1)c1ccc2c(c1)N=C(C1CCCCC1)c1cc(F)ccc1S2 | 10 nM |
| O=C(NCc1ccccc1Cl)c1ccc2c(c1)N=C(c1ccccc1F)c1ccccc1S2 [drawing 1413] | 39.8 nM |
| O=C(NCCc1ccncc1)c1ccc2c(c1)N=C(c1cccc(F)c1)c1ccccc1S2 [drawing 1389] | 31.6 nM |
| O=C(NC1CCCC1)c1ccc2c(c1)N=C(c1cccc(F)c1)c1ccccc1S2 [drawing 1310] | 25.1 nM |
| CCCC1=Nc2cc(C(=O)NC(C)C34C[C@H]5C[C@@H](C3)C[C@@H](C4)C5)ccc2Sc2ccccc21 (stereo partly shown) | 25.1 nM |
| O=C(NC1CCCCC1)c1ccc2c(c1)N=C(c1cccc(F)c1)c1ccccc1S2 [drawing 1306] | 3.16 nM |
| O=C(NN1CCCCC1)c1ccc2c(c1)N=C(c1ccc(Cl)cn1)c1ccccc1S2 [drawing 1373] | 31.6 nM |
| CCOC(=O)N1CCC(NC(=O)c2ccc3c(c2)N=C(c2ccc(Cl)cc2)c2ccccc2S3)CC1 [drawing 1548] | 12.6 nM |
